Test results published in US9796700B2 (Celgene CAR LLC, priority 2013, dated 2017).

Molecular target: Erk1 (Homo sapiens (Human), UniProt P27361)
Test: Protein Mass Modification Assay (intact protein MALDI)
Format: binding
Method: Protein Mass Modification Assay
Intact protein: Erk1 from Millipore (Cat. No. 14-439) was incubated for 60 min. at room temperature with a 10-fold excess of test compound to protein. 4 μL aliquots of the resulting mixture were diluted with 15 μL of 0.2% TFA prior to micro C4 ZipTipping directly onto the MALDI target using sinapinic acid as the desorption matrix (10 mg/ml in 0.1% TFA:Acetonitrile 50:50, v/v). The centroid mass of the target protein in the control sample was compared with the centroid mass of the target protein incubated with compound. A shift in the centroid mass of the treated protein compared to the untreated protein was divided by the molecular weight of the compound. This number corresponds to the percentage of modified protein after one hour incubation. Results from this assay are reported in Table A under the column “ERK1 Mass Mod (%).”

Chain of Erk1 (P27361 whole entry, looked up): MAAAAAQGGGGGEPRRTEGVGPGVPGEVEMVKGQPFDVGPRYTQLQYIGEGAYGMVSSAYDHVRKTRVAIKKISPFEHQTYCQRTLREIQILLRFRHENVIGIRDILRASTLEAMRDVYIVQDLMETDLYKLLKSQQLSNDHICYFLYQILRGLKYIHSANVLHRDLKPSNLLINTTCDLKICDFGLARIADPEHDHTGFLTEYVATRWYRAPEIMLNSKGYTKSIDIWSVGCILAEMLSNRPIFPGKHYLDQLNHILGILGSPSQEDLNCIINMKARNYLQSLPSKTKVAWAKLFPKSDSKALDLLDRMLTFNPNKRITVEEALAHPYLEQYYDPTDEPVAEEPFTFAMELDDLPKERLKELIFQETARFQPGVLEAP

| ERK1 Mass Mod (%) | Structure (SMILES) |
| --- | --- |
| E (provided a mass modification of ≧70%) | C=CC(=O)Nc1ccccc1Nc1nc(NC2CCCCC2)ncc1Cl [Compound I-107, N-(2-((5-chloro-2-(cyclohexylamino)pyrimidin-4-yl)amino)phenyl) acrylamide] |
| E (provided a mass modification of ≧70%) | C=CC(=O)Nc1ccccc1Nc1nc(N[C@H]2CCCN(C(C)=O)C2)ncc1Cl [Compound I-115, (S)—N-(2-((2-((1-acetylpiperidin-3-yl)amino)-5-chloropyrimidin-4-yl)amino)phenyl) acrylamide] |
| E (provided a mass modification of ≧70%) | C=CC(=O)Nc1ccccc1Nc1nc(NC2CCN(C(C)=O)CC2)ncc1Cl [Compound I-116, N-(2-((2-((1-acetylpiperidin-4-yl)amino)-5-chloropyrimidin-4-yl)amino)phenyl) acrylamide] |
| E (provided a mass modification of ≧70%) | C=CC(=O)Nc1ccccc1Nc1nc(NC2CCN(S(C)(=O)=O)CC2)ncc1Cl [Compound I-117, N-(2-((5-chloro-2-((1-(methylsulfonyl)piperidin-4-yl)amino)pyrimidin-4-yl)amino)phenyl)acrylamide] |
| E (provided a mass modification of ≧70%) | C=CC(=O)Nc1ccccc1Nc1nc(N[C@H]2CCCN(C=O)C2)ncc1Cl [Compound I-122, (S)—N-(2-((5-chloro-2-((1-formylpiperidin-3-yl)amino)pyrimidin-4-yl)amino)phenyl)acrylamide] |
| E (provided a mass modification of ≧70%) | C=CC(=O)Nc1ccccc1Nc1nc(N[C@H]2CCCNC2)ncc1Cl [Compound I-126, (S)—N-(2-((5-chloro-2-(piperidin-3-ylamino)pyrimidin-4-yl)amino)phenyl) acrylamide] |
| E (provided a mass modification of ≧70%) | C=CC(=O)Nc1ccccc1Nc1nc(NC2CCC(F)(F)CC2)ncc1Cl [Compound I-127, N-(2-((5-chloro-2-((4,4-difluorocyclohexyl)amino)pyrimidin-4-yl)amino)phenyl) acrylamide] |
| E (provided a mass modification of ≧70%) | C=CC(=O)Nc1ccccc1Nc1nc(N[C@@H]2CCCN(C(C)=O)C2)ncc1Cl [Compound I-128, (R)—N-(2-((2-((1-acetylpiperidin-3-yl)amino)-5-chloropyrimidin-4-yl)amino)phenyl) acrylamide] |
| E (provided a mass modification of ≧70%) | C=CC(=O)Nc1ccccc1Nc1nc(N[C@H]2CC[C@H](C(N)=O)CC2)ncc1Cl [Compound I-129, trans-4-((4-((2-acrylamidophenyl)amino)-5-chloropyrimidin-2-yl)amino)-cyclohexanecarboxamide] |
| E (provided a mass modification of ≧70%) | C=CC(=O)Nc1ccccc1Nc1nc(N[C@H]2CCCN(C(=O)C(C)(C)O)C2)ncc1Cl [Compound I-135, (S)—N-(2-((5-chloro-2-((1-(2-hydroxy-2-methylpropanoyl)piperidin-3-yl)amino)pyrimidin-4-yl)amino)phenyl)acrylamide] |
| E (provided a mass modification of ≧70%) | C=CC(=O)Nc1ccccc1Nc1nc(N[C@H]2CCCN(C(=O)[C@H](C)O)C2)ncc1Cl [Compound I-138, N-(2-((5-chloro-2-(((S)-1-((S)-2-hydroxypropanoyl)piperidin-3-yl)amino)pyrimidin-4-yl)amino)phenyl)acrylamide] |
| E (provided a mass modification of ≧70%) | C=CC(=O)Nc1ccccc1Nc1nc(Nc2ccc(N3CCNCC3)cc2OC(F)F)ncc1Cl [Compound I-142, N-(2-((5-chloro-2-((2-(difluoromethoxy)-4-(piperazin-1-yl)phenyl)amino)pyrimidin-4-yl)amino)phenyl)acrylamide] |
| E (provided a mass modification of ≧70%) | C=CC(=O)Nc1ccccc1Nc1nc(Nc2ccc3c(c2OC)CCCC(=O)N3CCN2CCOCC2)ncc1Cl [Compound I-145, N-(2-((5-chloro-2-((6-methoxy-1-(2-morpholinoethyl)-2-oxo-2,3,4,5-tetrahydro-1H-benzo[b]azepin-7-yl)amino)pyrimidin-4-yl)amino)phenyl)acrylamide] |
| E (provided a mass modification of ≧70%) | C=CC(=O)Nc1ccccc1Nc1nc(Nc2ccc3c(c2OC)CCCC(=O)N3CCCN2CCOCC2)ncc1Cl [Compound I-146, N-(2-((5-chloro-2-((6-methoxy-1-(3-morpholinopropyl)-2-oxo-2,3,4,5-tetrahydro-1H-benzo[b]azepin-7-yl)amino)pyrimidin-4-yl)amino)phenyl)acrylamide] |

Second part, the compound before the results:

| Structure (SMILES) | ERK1 Mass Mod (%) |
| --- | --- |
| C=CC(=O)Nc1ccccc1Nc1nc(Nc2cc(C(=O)NOCCO)ccc2C)ncc1C(F)(F)F [Compound I-73, 3-((4-((2-Acrylamidophenyl)amino)-5-(trifluoromethyl)pyrimidin-2-yl)amino)-N-(2-hydroxyethoxy)-4-methylbenzamide] | E (key: E: provided a mass modification of ≧70%; F: provided a mass modification of 31-69%; G: proived a mass modification ≦30%) |
| C=CC(=O)Nc1ccccc1Nc1nc(Nc2cc(C(=O)NOCCO)ccc2OC)ncc1C(F)(F)F [Compound I-74, 3-((4-((2-Acrylamidophenyl)amino)-5-(trifluoromethyl)pyrimidin-2-yl)amino)-N-(2-hydroxyethoxy)-4-methoxybenzamide] | E (provided a mass modification of ≧70%) |
| C=CC(=O)Nc1ccccc1Nc1nc(Nc2cc(C(=O)NOCCO)ccc2C#N)ncc1C(F)(F)F [Compound I-75, 3-((4-((2-Acrylamidophenyl)amino)-5-(trifluoromethyl)pyrimidin-2-yl)amino)-4-cyano-N-(2-hydroxyethoxy)benzamide] | E (provided a mass modification of ≧70%) |
| C=CC(=O)Nc1ccccc1Nc1nc(Nc2cc(C(=O)O)ccc2C)ncc1C(F)(F)F [Compound I-78, 3-((4-((2-Acrylamidophenyl)amino)-5-(trifluoromethyl)pyrimidin-2-yl)amino)-4-methylbenzoic acid] | E (provided a mass modification of ≧70%) |
| C=CC(=O)Nc1ccccc1Nc1nc(Nc2cc(C(=O)NC)c(F)cc2C)ncc1C(F)(F)F [Compound I-80, 5-((4-((2-Acrylamidophenyl)amino)-5-(trifluoromethyl)pyrimidin-2-yl)amino)-2-fluoro-N,4-dimethylbenzamide] | E (provided a mass modification of ≧70%) |
| C=CC(=O)Nc1ccccc1Nc1nc(Nc2cc(C(=O)NCCO)c(F)cc2C)ncc1C(F)(F)F [Compound I-81, 5-((4-((2-Acrylamidophenyl)amino)-5-(trifluoromethyl)pyrimidin-2-yl)amino)-2-fluoro-N-(2-hydroxyethyl)-4-methylbenzamide] | E (provided a mass modification of ≧70%) |
| C=CC(=O)Nc1ccccc1Nc1nc(NC(C)(C)C)ncc1C(F)(F)F [Compound I-82, N-(2-((2-(tert-Butylamino)-5-(trifluoromethyl)pyrimidin-4-yl)amino)phenyl)acrylamide] | E (provided a mass modification of ≧70%) |
| C=CC(=O)Nc1ccccc1Nc1nc(Nc2cc(C(N)=O)ccn2)ncc1C(F)(F)F [Compound I-83, 2-((4-((2-Acrylamidophenyl)amino)-5-(trifluoromethyl)pyrimidin-2-yl)amino)isonicotinamide] | E (provided a mass modification of ≧70%) |
| C=CC(=O)Nc1cc(C)ccc1Nc1nc(Nc2cc(OC)nc(N3CCN(CC)CC3)c2)ncc1C(F)(F)F [Compound I-89, N-(2-((2-((2-(4-Ethylpiperazin-1-yl)-6-methoxypyridin-4-yl)amino)-5-(trifluoromethyl)pyrimidin-4-yl)amino)-5-methylphenyl)acrylamide] | F (provided a mass modification of 31-69%) |
| C=CC(=O)Nc1cc(C)ccc1Nc1nc(Nc2cc(OC)nc(N3CCN(C(C)=O)CC3)c2)ncc1C(F)(F)F [Compound I-93, N-(2-((2-((2-(4-Acetylpiperazin-1-yl)-6-methoxypyridin-4-yl)amino)-5-(trifluoromethyl)pyrimidin-4-yl)amino)-5-methylphenyl)acrylamide] | E (key: E: provided a mass modification of ≧70%; F: provided a mass modification of 31-69%; G: proived a mass modification ≦30%) |
| C=CC(=O)Nc1cc(C)ccc1Nc1nc(Nc2cc(OC)nc(N3CCOCC3)c2)ncc1C(F)(F)F [Compound I-94, N-(2-((2-((2-Methoxy-6-morpholinopyridin-4-yl)amino)-5-(trifluoromethyl)pyrimidin-4-yl)amino)-5-methylphenyl)acrylamide] | F (provided a mass modification of 31-69%) |
| C=C(C)S(=O)(=O)Nc1ccccc1Nc1nc(Nc2cc(C(C)=O)ccc2C)ncc1C(F)(F)F [Compound I-97, N-(2-((2-((5-acetyl-2-methylphenyl)amino)-5-(trifluoromethyl)pyrimidin-4-yl)amino)phenyl)prop-1-ene-2-sulfonamide] | G (proived a mass modification ≦30%) |
| C=C(C)S(=O)(=O)Nc1cc(F)ccc1Nc1nc(Nc2cc(C(C)=O)ccc2C)ncc1C(F)(F)F [Compound I-99, N-(2-((2-((5-acetyl-2-methylphenyl)amino)-5-(trifluoromethyl)pyrimidin-4-yl)amino)-5-fluorophenyl)prop-1-ene-2-sulfonamide] | G (proived a mass modification ≦30%) |
| C=CC(=O)Nc1ccccc1Nc1nc(Nc2ccc(N3CCOCC3)cc2OC)ncc1C#N [Compound I-143, N-(2-((5-cyano-2-((2-methoxy-4-morpholinophenyl)amino)pyrimidin-4-yl)amino)phenyl)acrylamide] | F (provided a mass modification of 31-69%) |
| C=CC(=O)Nc1ccccc1Nc1nc(Nc2ccc(N3CCOCC3)cc2OC)ncc1N [Compound I-144, N-(2-((5-amino-2-((2-methoxy-4-morpholinophenyl)amino)pyrimidin-4-yl)amino)phenyl) acrylamide] | F (provided a mass modification of 31-69%) |
